{
  "source": "patent US6214801A",
  "about": "“Imidazo[1,2-a]pyridine C-nucleosides as antiviral agents” (The Regents of the University of Michigan, priority 1999, dated 2001)",
  "key": {"HIV-1": {"system": "HIV-1", "test": "HIV-1 replication, reverse transcriptase (RT) assay in CEM cells", "type": "cell-based, HIV-1 strain IIIB", "description": "(§1) CEM cells and strain IIIB of HIV-1 were obtained through courtesy of Dr. Louis S. Kurcera, Boman Gray School of Medicine, Wake Forest University. CEM cells were grown in suspension culture and passaged through conventional procedures.\nThe activity of compounds against HIV-1 replication was determine by using reverse transcriptase (RT) as a marker for HIV-1. Strain IIIB of HIV-1 was grown in CEM cells maintained in suspension culture as detailed previously (see Kucera et al. AIDS Res. Human Retroviruses, 1993, Vol. 9, pp. 307-314). The assay measured the presence of HIV in supernatants of infected CEM cells by determining the amount of RT activity. Cells were grown, infected with HIV-1, and incubated in the presence of seven concentrations (one-half log10 dilutions) of the test compounds beginning at 1 or 100 μM concentration, depending on the compound to be assayed. Procedures and the RT assay were performed as detailed previously (see White et al., Antiviral Res. 1991, Vol. 16, pp. 257-266)."}, "HCMV [1]": {"system": "HCMV", "test": "HCMV plaque (focus) reduction assay in HFF cells", "type": "cell-based", "conditions": "for pIC50: read-out: 50% Inhibitory Concentration IC50, Antiviral Activity, HCMV (plaque assay in HFF cells)", "description": "(§2) KB cells (available from the American Type Culture Collection (ATCC) 12301 Parklawn Drive, […], Md. 20852 (ATCC CCL 17)), an established human cell line derived from an epidermal oral carcinoma, were grown in minimal essential medium (MEM) (Sigma) with Hanks salts (MEM(H)) supplemented with 5% fetal calf serum. Human foreskin fibroblasts (HFF cells) (provided by the University of Michigan Hospital) and African green monkey kidney cells (BSC-1) (ATTC CCL 26) cells were grown in MEM with Earl salts (MEM(E)) supplemented with 10% fetal bovine serum. Cells were passaged according to conventional procedures and as described in Shipman, C., Jr. et al. (1976) Antimicrob. Agents Chemother. Vol. 9:120 and incorporated herein by reference. Briefly, cells were passaged at 1:2 to 1:10 dilutions according to conventional procedures by using 0.05% trypsin plus 0.02% EDTA in a HEPES buffered salt solution. HFF cells were passaged onlv at 1:2 dilutions.\n(§3) A plaque purified isolate, Po, of the Towne strain of HCMV was used in all experiments and was a gift of Dr. Mark Stinski, University of Iowa. The KOS strain of HSV-1 was used and was provided by Dr. Sandra K. Weller, University of Connecticut. Stock preparations of HCMV and HSV-1 were prepared and titered as known to those of skill and the art and described in Turk, S. R. et al. (1987) Antimicrob. Agents Chemother. Vol. 31:544-550 and Shipman, C., Jr., et al. (1990) J. Virol. Methods Vol. 28:101-106, each incorporated herein by reference.\nStock HCMV was prepared by infecting HFF cells at a multiplicity of infection (m.o.i.) of less that 0.01 plaque-forming units (p.f.u.) per cell. Cell growth medium was changed every four days until cytopathology was evident in all cells (approximately 21 days). Supernatant fluids were retained as the virus stock. Four days later, the remaining cells were disrupted by three cycles of freeze-thawing and the cell plus medium held as an additional source of virus. Storage was in liquid nitrogen.\nHCMV was titered in 24-well cluster dishes which were plated to contain 5×10^4 HFF cells/well, grown as described above. When the cells were 70 to 80% confluent, 0.2 ml of the virus suspension was added per well and adsorbed as described above. At least three ten-fold dilutions of each preparation were used. Following virus adsorption, the cell sheets were overlayed with 0.5% methocel (4000 CPS) in maintenance medium [MEM(E) with 1.1 g/liter NaHCO3, 100 units/ml penicillin G, 100 μg/ml streptomycin, and 5% fetal bovine serum]. The cultures were incubated in a humidified atmosphere of 4% CO2 -96% air. Viral plaques were visible 5 to 7 days after infection using at least 10-fold magnification. Cells were fixed and stained by a 10-minute exposure to a 0.1% solution of crystal violet in 20% methanol 7 to 12 days after infection. Microscopic foci were enumerated at 20-fold magnification using a Nikon Profile Projector.\n(§4) HCMV plaque reduction experiments were performed with monolayer cultures of HFF cells by a procedure similar to that referenced above for titration of the viruses and described in Devivar, R. V. et al. (1994) J. Med. Chem. Vol. 37:2942-2949. Activity of compounds against HSV-1 was evaluated using an ELISA assay.\nThe effect of compounds of the replication of HCMV was measured using a plaque (focus) reduction assay. For the former, HFF cells in 24-well culture dishes were infected with approximately 50 p.f.u. of HCMV per well using the procedures detailed above. Compounds dissolved in growth medium were added in four to six selected concentrations to duplicate wells following virus adsorption. Following incubation at 37 °C for 7 to 10 days, cell sheets were fixed, stained and microscopic plaques were enumerated as described above. Drug effects were calculated as a percentage of reduction in number of plaques in the presence of each drug concentration compared to the number observed in the absence of drug. […]"}, "HSV-1": {"system": "HSV-1", "test": "HSV-1 ELISA assay", "type": "cell-based, herpes simplex virus type 1, KOS strain", "description": "as §2, §3\nBriefly, high titer HSV-1 stocks were prepared as follows. Nearly confluent monolayer cultures of KB cells were grown in 32 oz. glass bottles containing MEM(E) buffered with 25 mM HEPES and supplemented with 5% fetal bovine serum and 0.127 giliter L-arginine (VGM, virus growth medium). The cultures were infected at a low input multiplicity to reduce the formation of defective virus. After cell cytopathology reached \"three to four plus\", the cells were harvested by vigorous shaking, and concentrated by centrifugation (800×g for 5 min.). The resulting virus pools were stored at -760C until retrieved for use in experiments.\nHSV-1 was titered using monolayer cultures of BSC-1 cells. Cells were planted at 3×10^5 cells/well using 6-well cluster dishes. MEM(E) supplemented with 10% fetal bovine serum was employed as medium. After 22-24 h, cells were 90% confluent and were inoculated in triplicate using at least three ten-fold dilutions with 0.2 ml of the virus suspension to be assayed and incubated in a humidified 4% CO2 -[…] atmosphere for one hour to permit viral adsorption. Following virus adsorption, the cell sheet was overlayed with 5 ml of MEM(E) with 5% serum plus 0.5% methocel (4000 CPS) and incubated an additional two to three days. Cells were fixed and stained with 0.1% crystal violet in 20% methanol and macroscopic plaques enumerated.\nas §4\nELISA techniques according to standard procedures were also used to determine activity against HSV-1. Drug effects were calculated as a percentage of the reduction in virus titers in the presence of each drug concentration compared to the titer obtained in the absence of drug. Ganciclovir was used as a positive control in all experiments."}, "in vitro": {"test": "in vitro", "type": "cell-based, human", "conditions": "human, hff cells", "description": "as §2\n(§5) Two different methods were used to evaluate cytotoxicity of the compounds. First, cytotoxicity produced in stationary HFF cells was determined by microscopical examination of cells not affected by the virus used in the plaque assay. Second the effect of compounds on KB cells during two population doubling times was determined by crystal violet staining and spectrophotometric quantitation of dye eluted from stained cells. This method has been utilized for the analysis of ganciclovir and zidovudine (See Prichard, M. N. et al. Antiviral Res. (1991) Vol. 35:1060-1065)."}, "[2]": {"test": "Growth cytotoxicity in KB cells (crystal violet staining)", "type": "cell-based", "conditions": "human, two population doubling times, read-out: 50% Inhibitory Concentration IC50, Cytotoxicity, Growth (KB cells)", "description": "as §2, §5"}, "[3]": {"test": "Growth cytotoxicity in CEM cells", "type": "cell-based", "conditions": "human, read-out: 50% Inhibitory Concentration IC50, Cytotoxicity, Growth (CEM cells)", "description": "as §1"}, "HFF cells": {"system": "HFF cells", "test": "in vitro", "type": "cell-based, human", "description": "as §2, §5"}, "HCMV [4]": {"system": "HCMV", "conditions": "background; cited from earlier work"}, "[5]": {"conditions": "background; cited from earlier work"}, "[6]": {"conditions": "Human betaherpesvirus 5, HFF cells, 7 to 10 days"}, "[7]": {"conditions": "Human alphaherpesvirus 1; read-out: 50% Inhibitory Concentration IC50, Antiviral Activity, HSV-1 (ELISA assay)"}},
  "note": "pIC50: −log10 of the molar value. “Also recorded” adds a separate entry of the source. Where two headings read alike, the source gives them in different places.",
  "data": [
    {"compound": "5-(5'-O-[(tert-Butyl)dimethylsilyl]-2',3'-O-isopropylidene-β-D-ribofuranosyl)-imidazo[1,2-a]pyridine [Compound 44]", "values": [
      {"measurement": "HIV-1 antiviral activity (in words)", "setting": "HIV-1; Table 6", "value": "HIV-1 antiviral activity at non-cytotoxic concentrations"}
    ]},
    {"compound": "Clc1cc2nc(Cl)c(C3C=CCO3)n2cc1Cl", "note": "(racemic) [Compound 26, 2,6,7-Trichloro-3-(2',3'-dideoxy-2',3'-didehydro-β-D/ L-erythro-furanosyl)-imidazo[1,2-a]pyridine]", "values": [
      {"measurement": "pIC50", "setting": "HCMV [1]; [6]", "value": 4.49},
      {"measurement": "pIC50", "setting": "HSV-1; [7]", "value": "< 4.00"},
      {"measurement": "CC50", "setting": "in vitro", "value": 222, "unit": "µM"},
      {"measurement": "CC50", "setting": "[2]", "value": "> 100", "unit": "µM"},
      {"measurement": "CC50", "setting": "[3]", "value": "> 100", "unit": "µM"}
    ]},
    {"compound": "OC[C@@H]1C=C[C@H](c2c(Cl)nc3cc(Cl)c(Cl)cn23)O1", "note": "[Compound 76, 2,6,7-Trichloro-3-(2',3'-dideoxy-2',3'-didehydro-β-D-ribofuranosyl) imidazo[1,2-a] pyridine]", "values": [
      {"measurement": "pIC50", "setting": "HCMV [1]; Human betaherpesvirus 5, HFF", "value": 4.49},
      {"measurement": "pIC50", "setting": "HSV-1; [7]", "value": "< 4.00"},
      {"measurement": "CC50", "setting": "in vitro", "value": 100, "unit": "µM"},
      {"measurement": "CC50", "setting": "[2]", "value": "> 100", "unit": "µM"},
      {"measurement": "50% Inhibitory Concentration IC50, Antiviral Activity, HIV-1 (RT Assay)", "setting": "HIV-1; CEM cells, strain IIIB", "value": "14/25"},
      {"measurement": "CC50", "setting": "[3]", "value": "> 100", "unit": "µM"}
    ]},
    {"compound": "O[C@@H]1[C@H](O)CO[C@@H]1c1c(Cl)nc2cc(Cl)c(Cl)cn12", "note": "[Compound +29, 2,6,7-trichloro-3-(α-D-erythrofuranosyl)imidazo[1,2-α]pyridine]", "values": [
      {"measurement": "pIC50", "setting": "HCMV [1]; [6]", "value": 5.31},
      {"measurement": "antiviral activity (in words)", "setting": "HCMV [1]; Table 5", "value": "excellent antiviral activity"},
      {"measurement": "pIC50", "setting": "HSV-1; Human alphaherpesvirus 1, read-out: 50% Inhibitory Concentration IC50, Antiviral Activity, HSV-1 (ELISA assay)", "value": 4.10},
      {"measurement": "CC50", "setting": "in vitro", "value": "> 100", "unit": "µM"},
      {"measurement": "cytotoxicity (in words)", "setting": "HFF cells", "value": "very low cytotoxicity"},
      {"measurement": "CC50", "setting": "[2]", "value": "> 100", "unit": "µM"}
    ]},
    {"compound": "OC[C@H]1O[C@@H](n2cnc3cc(Cl)c(Cl)cc32)[C@H](O)[C@@H]1O", "note": "[DRB, 5,6-dichloro-1-(β-D-ribofuranosyl) benzimidazole]", "values": [
      {"measurement": "antiviral activity of known compounds (in words)", "setting": "HCMV [4]", "value": "only marginal levels of activity"},
      {"measurement": "cytotoxicity of known compounds (in words)", "setting": "[5]", "value": "generally unacceptable levels of cytotoxicity"}
    ]},
    {"compound": "OC[C@H]1O[C@@H](n2c(Cl)nc3cc(Cl)c(Cl)cc32)[C@H](O)[C@@H]1O", "note": "[TCRB, 2,5,6-trichloro-1-(2'-β-D-ribofuranosyl)benzimidazole]", "values": [
      {"measurement": "pIC50", "setting": "HCMV [1]; [6]", "value": 5.02},
      {"measurement": "CC50", "setting": "in vitro", "value": 15, "unit": "µM"},
      {"measurement": "antiviral activity of known compounds (in words)", "setting": "HCMV [4]", "value": "useful against HCMV infections; also recorded: very potent activity against HCMV"},
      {"measurement": "cytotoxicity of known compounds (in words)", "setting": "[5]", "value": "low cellular toxicity at concentrations inhibiting viral growth"}
    ]}
  ]
}
